Non-standard residues stand in square brackets, D forms with d. Residues, ends and D or L forms follow the SMILES beside them. ξ: configuration not given here. *: point of attachment. Phe(4-Br) = N[C@@H](Cc1ccc(Br)cc1)C(=O)O; Phe(4-Cl) = N[C@@H](Cc1ccc(Cl)cc1)C(=O)O; Phe(4-I) = N[C@@H](Cc1ccc(I)cc1)C(=O)O; 1Nal = N[C@@H](Cc1cccc2ccccc12)C(=O)O; Bta = N[C@@H](Cc1csc2ccccc12)C(=O)O; ξW = NC(Cc1c[nH]c2ccccc12)C(=O)O; Cbz = O=C(OCc1ccccc1)*; Bn = c1ccc(C*)cc1

endothelin converting enzyme (ECE), sequence (F1SU04 entry or part of it): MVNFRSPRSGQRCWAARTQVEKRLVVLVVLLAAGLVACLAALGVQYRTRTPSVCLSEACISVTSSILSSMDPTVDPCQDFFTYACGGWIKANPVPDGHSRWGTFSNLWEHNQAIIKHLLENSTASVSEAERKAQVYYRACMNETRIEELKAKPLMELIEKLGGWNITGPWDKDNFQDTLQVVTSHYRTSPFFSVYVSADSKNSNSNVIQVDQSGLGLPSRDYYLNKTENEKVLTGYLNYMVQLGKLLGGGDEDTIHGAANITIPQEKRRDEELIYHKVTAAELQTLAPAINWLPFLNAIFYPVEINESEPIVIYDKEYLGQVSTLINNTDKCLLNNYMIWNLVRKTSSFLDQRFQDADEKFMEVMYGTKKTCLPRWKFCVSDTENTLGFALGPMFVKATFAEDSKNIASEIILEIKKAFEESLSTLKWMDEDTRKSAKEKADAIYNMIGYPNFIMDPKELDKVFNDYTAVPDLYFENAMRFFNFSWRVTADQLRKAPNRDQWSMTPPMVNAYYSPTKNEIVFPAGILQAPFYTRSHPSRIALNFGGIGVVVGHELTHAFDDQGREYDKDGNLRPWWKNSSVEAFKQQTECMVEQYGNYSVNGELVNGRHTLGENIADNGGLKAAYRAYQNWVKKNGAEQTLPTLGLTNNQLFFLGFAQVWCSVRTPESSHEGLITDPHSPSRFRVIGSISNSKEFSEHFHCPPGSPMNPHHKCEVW

One assay concerns the target endothelin converting enzyme (ECE) (Sus scrofa, UniProt F1SU04). The assay is described as follows: "ECE" assay with porcine aortic "ECE" prep, fluorogenic substrate Suc-Ile-Ile-Trp-MCA. In kind it is biochemical. The note with it: pH 7. The method, then: IC50 values were determined as follows:
Porcine Aortic "ECE" Prep
Porcine aortas (22-25) were obtained fresh from a local slaughterhouse and delivered in cold PBS on ice. The aortas were cut open, rinsed with cold PBS and the endothelial cell layer scraped into cold PBS using a scalpel. The endothelial cells were pelleted by centrifugation, rinsed once with cold PBS, and repelleted. The pellet was lysed by addition of 10 volumes of 10 mM Tris-HCl, pH 7.0, containing protease inhibitors and DTS, followed by brief sonication and homogenization. The lysate was centrifuged at 100,000 g for 1 hour and the supernatant applied to a MONOQ FPLC anion exchange column equilibrated in 10 mM Tris-HCl, pH 7.0 (buffer A) which was then developed with an increasing gradient of NaCl in buffer A. The active fractions were aliquoted and stored at -70° C.
The ECE assay was performed in 96-well microplates in a total volume of 200μ/well. The assay cocktail contains 100 mM Tris-HCl, pH 7.0, 20 mM CaCl2, 80 μM substrate (Suc-Ile-Ile-Trp-MCA), enzyme and test compounds. The test compounds were preincubated with the enzyme for 15-20 minutes before initiation of the assay by addition of the substrate. The assay was incubated overnight at 37° C. and the fluorescence intensity caused by the release of AMC was determined using a fluorescence microplate reader (EX360 nm/EM460 nm). IC50 values for compounds were determined by constructing concentration-effect curves for the inhibition of enzyme activity. Concentrations on the linear portion of the inhibition curve were used to determine the IC50 utilizing a Hill plot.
With `O=C[C@H](Cc1c[nH]c2ccccc12)NC(=O)[C@H](Cc1cccc2ccccc12)NC(=O)[C@H](Cc1ccc(Br)cc1)NC(=O)OCc1ccccc1` [Example 37, N-Benzyloxycarbonyl-S-p-bromophenylalanyl-S-1'naphthylalanyl-1-S-formyl-1-(1H-indol-3-yl-methyl)-methylamide] (Cbz-[Phe(4-Br)]-[1Nal]-Trp-aldehyde), the IC50 (commonly the midpoint of a concentration-inhibition curve) came out at 7 nM.
On the same count and under the same terms, as for `O=C[C@H](Cc1c[nH]c2ccccc12)NC(=O)[C@H](Cc1cccc2ccccc12)NC(=O)[C@H](Cc1ccc(I)cc1)NC(=O)OCc1ccccc1` [Example 40, N-Benzyloxycarbonyl-S-p-iodophenylalanyl-S-1'naphthylalanyl-1-S-formyl-1-(1H-indol-3-yl-methyl)-methylamide] (Cbz-[Phe(4-I)]-[1Nal]-Trp-aldehyde), the figure is 10 nM.

The assay is the same for the next values; noted with them: porcine aortic endothelial cell ECE prep; 80 μM Suc-Ile-Ile-Trp-MCA; 15-20 min preincubation; overnight at 37° C.; pH 7.0; AMC fluorescence.
The compound `CC[C@H](C)[C@H](NC(=O)OCc1ccccc1)C(=O)N[C@H](C(=O)N[C@H](C=O)Cc1c[nH]c2ccccc12)[C@@H](C)CC` [Example 15, N-Benzyloxycarbonyl-S-isoleucyl-S-isoleucine 1-S-formyl-2-(1H-indol-3-yl]ethylamide] (Cbz-Ile-Ile-Trp-aldehyde) yielded an IC50 of 200 nM.
`CC[C@H](C)[C@H](NC(=O)OCc1ccccc1)C(=O)N[C@H](C(=O)N[C@H](C=O)Cc1ccccc1)[C@@H](C)CC` [Example 16, N-Benzyloxycarbonyl-S-isoleucyl-S-isoleucine 1-S-formyl-2-phenyl-ethylamide] (Cbz-Ile-Ile-Phe-aldehyde) returned a half-maximal inhibitory concentration (IC50) of 400 nM.
On the same count and under the same terms, to `CC[C@H](C)[C@H](NC(=O)OCc1ccccc1)C(=O)N[C@H](C(=O)N[C@H](C=O)CC(C)C)[C@@H](C)CC` [Example 17, N-Benzyloxycarbonyl-S-isoleucyl-S-isoleucine 1-S-formyl-3-methyl-butylamide] (Cbz-Ile-Ile-Leu-aldehyde) belongs 4400 nM.
For `CC[C@H](C)[C@H](NC(=O)OCc1ccccc1)C(=O)N[C@H](C(=O)N[C@H](C=O)Cc1csc2ccccc12)[C@@H](C)CC` [Example 18, N-Benzyloxycarbonyl-S-isoleucyl-S-isoleucine 1-S-formyl-2-(benzo-thien-3-yl)ethylamide] (Cbz-Ile-Ile-[Bta]-aldehyde), inhibition was half-maximal at 600 nM (IC50).
On the same count and under the same terms, as for `O=C[C@H](Cc1c[nH]c2ccccc12)NC(=O)[C@H](Cc1ccc(OCc2ccccc2)cc1)NC(=O)[C@H](Cc1ccc(Br)cc1)NC(=O)OCc1ccccc1` [Example 19, N-Benzyloxycarbonyl-S-p-bromophenylalnyl-S-(O-benzyl)tyrosyl-1-S-formyl-1-(1H-indol-3-yl-methyl)-methylamide] (Cbz-[Phe(4-Br)]-Tyr(Bn)-Trp-aldehyde), the figure is 10 nM; as for `CC[C@H](C)[C@H](NC(=O)[C@H](Cc1ccccc1)NC(=O)OCc1ccccc1)C(=O)N[C@H](C=O)[C@@H](C)CC` [Example 20, N-Benzyloxycarbonyl-S-phenylalanyl-S-isoleucyl-1-S-formyl-1-(S)-1-methylpropylmethylamide] (Cbz-Phe-Ile-Ile-aldehyde), 1100 nM; as for `CC[C@H](C)[C@@H](C=O)NC(=O)[C@H](Cc1ccccc1)NC(=O)[C@H](C)NC(=O)OCc1ccccc1` [Example 21, N-Bezyloxycarbonyl-S-alanyl-S-phenylalanyl-1-S-formyl-1-(2-S-butyl)-methylamide] (Cbz-Ala-Phe-Ile-aldehyde), 1200 nM.
Same read-out and setting: to `CCC(C)C(C=O)NC(=O)C(NC(=O)C(NC(=O)OCc1ccccc1)C(C)CC)C(C)CC` [Example 22, N-Benzyloxycarbonyl-S-isoleucyl-S-isoleucyl-1-S-formyl-1-(S)-1-methylpropyl)-methylamide] (Cbz-Ile-Ile-Ile-aldehyde; configuration not given here) belongs 4000 nM; to `CC[C@H](C)[C@H](NC(=O)[C@@H](NC(=O)OCc1ccccc1)C(C)C)C(=O)NC(C=O)Cc1c[nH]c2ccccc12` (stereo partly drawn) [Example 24] (Cbz-Val-Ile-[ξW]-aldehyde), 1500 nM; to `CC[C@H](C)[C@H](NC(=O)[C@H](Cc1ccccc1)NC(=O)OCc1ccccc1)C(=O)N[C@H](C=O)Cc1c[nH]c2ccccc12` [Example 25, N-Benzyloxycarbonyl-S-phenylalanyl-S-isoleucyl-1-S-formyl-1-(1H-indol-3-yl-methyl)-methylamide] (Cbz-Phe-Ile-Trp-aldehyde), 300 nM.
Still for that read-out and setting: to `C[C@H](NC(=O)OCc1ccccc1)C(=O)N[C@@H](Cc1ccccc1)C(=O)N[C@H](C=O)Cc1c[nH]c2ccccc12` [Example 26, N-Benzyloxycarbonyl-S-alanyl-S-phenylalanyl-1-S-formyl-1-(1H-indol-3-yl-methyl)-methylamide] (Cbz-Ala-Phe-Trp-aldehyde) belongs 1500 nM; to `CCC(C)C(NC(=O)OCc1ccccc1)C(=O)NC(Cc1ccccc1)C(=O)NC(C=O)Cc1c[nH]c2ccccc12` (stereo not drawn) [Example 27, N-Benzyloxycarbonyl-S-isoleucyl-S-phenylalanyl-1-S-formyl-1-(1H-indol-3-yl-methyl)-methylamide] (Cbz-Ile-Phe-Trp-aldehyde; configuration not given here), 500 nM; to `CCC(C)C(NC(=O)C(CC(C)C)NC(=O)OCc1ccccc1)C(=O)NC(C=O)Cc1c[nH]c2ccccc12` (stereo not drawn) [Example 28] (Cbz-Leu-Ile-Trp-aldehyde; configuration not given here), 200 nM.
Regarding `CC[C@H](C)[C@H](NC(=O)OCc1ccccc1)C(=O)N[C@H](C(=O)N[C@H](C=O)Cc1c[nH]c2ccccc12)C(C)C` [Example 29, N-Benzyloxycarbonyl-S-isoleucyl-S-valyl-1-S-formyl-1-(1H-indol-3-yl-methyl)-methylamide] (Cbz-Ile-Val-Trp-aldehyde), the half-inhibitory concentration (IC50) is 200 nM. That is a sub-micromolar value.
On the same count and under the same terms, as for `CC[C@H](C)[C@H](NC(=O)OCc1ccccc1)C(=O)N[C@@H](Cc1c[nH]c2ccccc12)C(=O)N[C@H](C=O)Cc1c[nH]c2ccccc12` [Example 30, N-Benzyloxycarbonyl-S-isoleucyl-S-tryptophanyl-1-S-formyl-1-(1H-indol-3-yl-methyl)-methylamide] (Cbz-Ile-Trp-Trp-aldehyde), the figure is 200 nM; as for `O=CC(Cc1c[nH]c2ccccc12)NC(=O)C(Cc1ccccc1)NC(=O)C(Cc1ccccc1)NC(=O)OCc1ccccc1` (stereo not drawn) [Example 32, N-Benzyloxycarbonyl-S-phenylalanyl-S-phenylalanyl-1-S-formyl-1-(1H-indol-3-yl-methyl)-methylamide] (Cbz-Phe-Phe-Trp-aldehyde; configuration not given here), 100 nM; as for `CC[C@H](C)[C@H](NC(=O)OCc1ccccc1)C(=O)N[C@H](C(=O)N[C@H](C=O)Cc1ccc(O)cc1)[C@@H](C)CC` [Example 33, N-Benzyloxycarbonyl-S-isoleucyl-S-isoleucyl-1-S-formyl-1-(4-hydroxy-benzyl)-methylamide] (Cbz-Ile-Ile-Tyr-aldehyde), 200 nM.
The compound `O=CC(Cc1c[nH]c2ccccc12)NC(=O)[C@H](Cc1cccc2ccccc12)NC(=O)[C@H](Cc1c[nH]c2ccccc12)NC(=O)OCc1ccccc1` (stereo partly drawn) [Example 34, N-Benzyloxycarbonyl-S-tryptophanyl-S-1'naphthylalanyl-1-S-formyl-1-(1H-indol-3-yl-methyl)-methylamide] (Cbz-Trp-[1Nal]-[ξW]-aldehyde) showed a half-inhibitory concentration (IC50) of 8 nM.
Still for that read-out and setting: to `O=C[C@H](Cc1c[nH]c2ccccc12)NC(=O)[C@H](Cc1ccc(OCc2ccccc2)cc1)NC(=O)[C@H](Cc1c[nH]c2ccccc12)NC(=O)OCc1ccccc1` [Example 36, N-Benzyloxycarbonyl-S-tryptophanyl-S-(O-benzyl)tyrosyl-1-S-formyl-1-(1H-indol-3-yl-methyl)-methylamide] (Cbz-Trp-Tyr(Bn)-Trp-aldehyde) belongs 30 nM; to `O=C[C@H](Cc1ccc(Cl)cc1)NC(=O)[C@H](Cc1ccc(OCc2ccccc2)cc1)NC(=O)[C@H](Cc1cccc2ccccc12)NC(=O)OCc1ccccc1` [Example 39, N-Benzyloxycarbonyl-S-1'naphthylalanyl-S-(O-benzyl)tyrosyl-1-S-formyl-1-(4-chlorophenylmethyl)-methyloamide] (Cbz-[1Nal]-Tyr(Bn)-[Phe(4-Cl)]-aldehyde), 15 nM; to `C#CC(=O)C(Cc1c[nH]c2ccccc12)NC(=O)[C@@H](NC(=O)[C@@H](NC(=O)OCc1ccccc1)[C@@H](C)CC)[C@@H](C)CC` (stereo partly drawn) [Example 49, N-Benzyloxycarbonyl-L-isoleucyl-L-isoleucine-L_N-[1[2-propynoyl]2-(1H-indol-3-yl)ethyl]amide], 10000 nM.
Same read-out and setting: to `CC[C@H](C)[C@H](NC(=O)OCc1ccccc1)C(=O)N[C@H](C(=O)NC(C=NNC(N)=O)Cc1c[nH]c2ccccc12)[C@@H](C)CC` (stereo partly drawn) [Example 56, N-Benzyloxycarbonyl-L-isoleucyl-L-isoleucine-L-N-[1[semicarbazonomethyl]2-(1H-indol-3-yl)ethyl]amide] belongs 10000 nM; to `CC[C@H](C)[C@H](NC(=O)CC(c1ccccc1)c1ccccc1)C(=O)N[C@H](C(=O)NC(C=O)Cc1c[nH]c2ccccc12)[C@@H](C)CC` (stereo partly shown) [Example 58], 100 nM.
